US7731985B2, “4-aminopyrimidines and their use for the antimicrobial treatment of surfaces” (Ciba Specialty Chemicals Corporation, priority 2002, dated 2010)

Columns and labels:
Assay in all cases: MIC in microtitre plates (Example 10)
Type in all cases: cell-based
Design in all cases: unit not given here
Conditions in all cases: microtitre plate, 48 hours at 37° C., ≦20% growth
[1] = tested on: Candida albicans ATCC 10231 (=CA)
Experimental: (§1) Determination of the Minimum Inhibitory Concentration (MIC Value) in Microtitre Plates Casein/soymeal peptone broth for preparation of pre-cultures of test bacteria and yeast Bacteria: • Pseudomonas aeruginosa CIP A-22 (=PA) • Escherichia coli NCTC 8196 (=EC) • Staphylococcus aureus ATCC 9144 (=SA) • Candida albicans ATCC 10231 (=CA) The test substances are pre-dissolved in dimethyl sulfoxide (DMSO) and tested in a dilution series of 1:2. Bacteria and yeast are cultured overnight in CASO broth. All the test organism suspensions are adjusted to an organism count of 1-5×10^6 CFU/ml using […] sodium chloride solution. The test substances are pre-pipetted into microtitre plates in amounts of 8 μl per well. The pre-adjusted organism suspensions are diluted 1:100 in CASO broth and are added in amounts of 192 μl per well to the test substances. The test batches are incubated for 48 hours at 37° C. The incubation, the growth is determined on the basis of the turbidity of the test batches (optical density) at 620 nm in a microplate reader. The minimum inhibitory concentration (MIC value) is the concentration of substance at which (compared to the growth of the control) an appreciable inhibition of growth (≦20% growth) of the test organisms is observed. Three microtitre plates are used for each test organism and substance concentration. All the substances are tested in duplicate.

[2] = tested on: Pseudomonas aeruginosa CIP A-22 (=PA)
Experimental: as §1

[3] = tested on: Escherichia coli NCTC 8196 (=EC)
Experimental: as §1

[4] = tested on: Staphylococcus aureus ATCC 9144 (=SA)
Experimental: as §1

MIC CA [1] | MIC PA [2] | MIC EC [3] | MIC SA [4] | SMILES
7.5 | >120 | 15 | 7.5 | NCCN1CCN(c2nc(-c3ccccc3)nc(-c3cccc4ccccc34)c2-c2ccccc2)CC1 [compound 3]
15 | >120 | 30 | 7.5 | NCCCCCCCCNc1nc(-c2ccccc2)nc(-c2cccc3ccccc23)c1-c1ccccc1 [compound 4]
>120 | >120 | >120 | 7.5 | NCCCCCCCCCCNc1nc(-c2ccccc2)nc(-c2cccc3ccccc23)c1-c1ccccc1 [compound 5]
>120 | >120 | 60 | 7.5 | NCCCOCCCCOCCCNc1nc(-c2ccccc2)nc(-c2cccc3ccccc23)c1-c1ccccc1 [compound 6]
30 | >120 | 15 | 15 | Fc1ccc(-c2nc(-c3ccccc3)nc(N3CCCNCC3)c2-c2ccccc2)cc1 [compound 7]
120 | >120 | 30 | 30 | NCCCCCCCCCCCCNc1nc(-c2ccccc2)nc(-c2ccc(F)cc2)c1-c1ccccc1 [compound 8]
30 | >120 | 15 | 15 | NCCCOCCCCOCCCNc1nc(-c2ccccc2)nc(-c2ccc(F)cc2)c1-c1ccccc1 [compound 9]
30 | >120 | 30 | 15 | CNCCN(C)c1nc(-c2ccccc2)nc(-c2ccc(C)cc2)c1-c1ccccc1 [compound 10]
7.5 | >120 | 15 | 7.5 | Cc1ccc(-c2nc(-c3ccccc3)nc(NCCCCCCN)c2-c2ccccc2)cc1 [compound 11]
7.5 | 7.5 | 3.75 | 7.5 | Cc1ccc(-c2nc(-c3ccccc3)nc(NCCCN(C)CCCN)c2-c2ccccc2)cc1 [compound 12]
30 | >120 | 15 | 15 | Cc1ccc(-c2nc(-c3ccccc3)nc(NCCOCCOCCN)c2-c2ccccc2)cc1 [compound 13]
15 | 30 | 3.75 | 15 | Cc1ccc(-c2nc(-c3ccccc3)nc(NCCCN3CCN(CCCN)CC3)c2-c2ccccc2)cc1 [compound 14]
>120 | >120 | >120 | 15 | Cc1ccc(-c2nc(-c3ccccc3)nc(N3CCC(CCCC4CCNCC4)CC3)c2-c2ccccc2)cc1 [compound 15]
15 | >120 | 15 | 7.5 | FC(F)(F)c1cccc(-c2nc(-c3ccccc3)nc(N3CCNCC3)c2-c2ccccc2)c1 [compound 16]
15 | >120 | 30 | 15 | CNCCN(C)c1nc(-c2ccccc2)nc(-c2cccc(C(F)(F)F)c2)c1-c1ccccc1 [compound 17]
60 | 120 | 30 | 30 | NCCNCCNc1nc(-c2ccccc2)nc(-c2cccc(C(F)(F)F)c2)c1-c1ccccc1 [compound 18]
8 | >120 | 15 | 7.5 | NCCN1CCN(c2nc(-c3ccccc3)nc(-c3cccc(C(F)(F)F)c3)c2-c2ccccc2)CC1 [compound 19]
15 | >120 | 30 | 15 | NCCCCCCCCNc1nc(-c2ccccc2)nc(-c2cccc(C(F)(F)F)c2)c1-c1ccccc1 [compound 20]
<3.75 | 7.5 | <3.75 | 7.5 | CN(CCCN)CCCNc1nc(-c2ccccc2)nc(-c2cccc(C(F)(F)F)c2)c1-c1ccccc1 [compound 21]
7.5 | >120 | 15 | 15 | NCCOCCOCCNc1nc(-c2ccccc2)nc(-c2cccc(C(F)(F)F)c2)c1-c1ccccc1 [compound 22]
7.5 | 30 | 7.5 | 15 | NCCCN1CCN(CCCNc2nc(-c3ccccc3)nc(-c3cccc(C(F)(F)F)c3)c2-c2ccccc2)CC1 [compound 23]
30 | 30 | 15 | 30 | COc1cccc(-c2nc(-c3ccccc3)nc(NCCCN(C)CCCN)c2-c2ccccc2)c1 [compound 24]

MIC CA [1] | MIC PA [2] | MIC EC [3] | MIC SA [4] | SMILES
120 | >120 | 60 | >120 | COc1cccc(-c2nc(-c3ccccc3)nc(NCCCN3CCN(CCCN)CC3)c2-c2ccccc2)c1 [compound 25]
>120 | >120 | 60 | 60 | CNCCN(C)c1nc(-c2ccccc2)nc(-c2ccccc2OC)c1-c1ccccc1 [compound 26]
60 | >120 | 30 | 30 | COc1ccccc1-c1nc(-c2ccccc2)nc(N2CCN(CCN)CC2)c1-c1ccccc1 [compound 27]
>120 | >120 | >120 | <3.75 | COc1ccccc1-c1nc(-c2ccccc2)nc(N2CCC(CCCC3CCNCC3)CC2)c1-c1ccccc1 [compound 28]
30 | >120 | 30 | 15 | NCCCCCCCCCCCCNc1cc(-c2cccc3ccccc23)ncn1 [compound 29]
15 | >120 | 30 | 60 | FC(F)(F)c1cccc(-c2cc(N3CCC(CCCC4CCNCC4)CC3)ncn2)c1 [compound 30]
120 | >120 | >120 | 60 | CCCNc1cc(C)nc(-c2cccnc2)n1 [compound 31]
60 | >120 | 120 | 60 | CCCCNc1cc(C)nc(-c2cccnc2)n1 [compound 32]
60 | >120 | >120 | 30 | CCCCCCNc1cc(C)nc(-c2cccnc2)n1 [compound 33]
30 | >120 | 120 | 7.5 | CCCCCCCCNc1cc(C)nc(-c2cccnc2)n1 [compound 34]
30 | 120 | 30 | 15 | CCCCCCCCCCCNc1cc(C)nc(-c2cccnc2)n1 [compound 35]
7.5 | 60 | 15 | 7.5 | CCCCCCCCCCCCNc1cc(C)nc(-c2cccnc2)n1 [compound 36]
7.5 | >120 | 15 | 7.5 | CCCCCCCCCCCCCNc1cc(C)nc(-c2cccnc2)n1 [compound 37]
<3.75 | >120 | 7.5 | <3.75 | CCCCCCCCCCCCCCNc1cc(C)nc(-c2cccnc2)n1 [compound 38]
15 | >120 | 30 | <3.75 | CCCCCCCCCCCCCCCCNc1cc(C)nc(-c2cccnc2)n1 [compound 39]
120 | >120 | >120 | 60 | CCCC(C)Nc1cc(C)nc(-c2cccnc2)n1 (centres unmarked) [compound 40]
60 | >120 | >120 | 30 | Cc1cc(NC(C)CC(C)C)nc(-c2cccnc2)n1 (centres unmarked) [compound 41]
30 | >120 | 120 | <3.75 | CCCCC(CC)CNc1cc(C)nc(-c2cccnc2)n1 (centres unmarked) [compound 42]
120 | >120 | >120 | 60 | COCC(C)Nc1cc(C)nc(-c2cccnc2)n1 (centres unmarked) [compound 43]
120 | >120 | >120 | 120 | CCN(CC)CCCNc1cc(C)nc(-c2cccnc2)n1 [compound 44]
120 | >120 | >120 | 60 | Cc1cc(NCc2ccccc2)nc(-c2cccnc2)n1 [compound 45]
120 | >120 | >120 | 120 | Cc1cc(NC2CCCCC2)nc(-c2cccnc2)n1 [compound 46]
